We go through one sequence from article PMC8234864, “Early Effects of the Soluble Amyloid β25-35 Peptide in Rat Cortical Neurons: Modulation of Signal Transduction Mediated by Adenosine and Group I Metabotropic Glutamate Receptors” (International Journal of Molecular Sciences, 2021).

One test deals with adenylyl cyclase (AC). In words: Adenylyl cyclase activity, basal and forskolin-stimulated. In kind it is cell-based, rat. On the procedure:
AC activity was determined as previously reported by Murphy with minor modifications. Briefly, control or treated cells were pre-incubated in serum-free DMEM buffered with 20 mM HEPES, pH 7.4, supplemented with 100 µM Ro 20-1724 and 2 U/mL ADA, for 10 min at 37 °C. AC activity was stimulated using specific ligands for 15 min at 37 °C in a final volume of 250 µL. The reaction was stopped by adding 500 µL 0.1 M HCl in absolute ethanol. Once centrifuged at 12,000× g for 10 min, supernatants were evaporated in speed-vac and resuspended in 150 µL assay buffer (50 mM Tris-HCl, 4 mM EDTA). Fifty microliters of the sample were used to determine cAMP accumulation using protein kinase A as a cAMP binding protein and [^3H]cAMP as radioligand. A cAMP standard curve (0–16 pmol) was prepared in the same buffer. Incubation was stopped by rapid filtration through Whatman GF/B filters.

In the next test the test system is PLCβ1. In words: PLCβ1 immunocytochemistry in permeabilized neurons. The format is cell-based, rat. Conditions: 25 µM, 24 h. The procedure: For PLCβ1 immunostaining, the protocol described above was followed with the introduction of modified steps. Before the nonspecific staining blockade with 3% normal goat serum, cells were pre-treated with Triton 0.25% in LB for 10 min to induce membrane permeabilization. Cells were incubated overnight in blocking buffer with mouse anti-PLCβ1 monoclonal antibody (1:500) from Millipore (Bedford, MA, USA). The following day, after three LB washes (10 min each), cortical neurons were exposed to Cy3-conjugated goat anti-mouse IgG (1:600). In all immunochemical procedures, internal controls were carried out where primary antibodies were not added to the blocking buffer.
To evaluate the degree of fluorescence intensity in cortical neurons, fluorescence was measured to estimate the protein expression in the different experimental conditions analyzed. Images (448.6 µm × 335.08 µm) obtained with a digital camera (Leica DFC350FX R2), attached to a Leica DMI6000B (Leica Microsystems, Wetzlar, Germany) fluorescent microscope, were used for quantification (20x HCX PL FLUOTAR 0.4 dry objective). […] Fluorescence intensity was estimated by averaging mean grey values. […] Data were normalized to the total number of cells in the analyzed fields. The mean fluorescence background, calculated in the unstained regions between neurons, was subtracted from the fluorescence intensity of each data point. […]

The target in the next test is T1, A1R (Rattus norvegicus, UniProt P25099).
T1 construct: endogenous in cells; host or cells: rat primary cortical neurons (intact)
T1 sequence (P25099 1-326): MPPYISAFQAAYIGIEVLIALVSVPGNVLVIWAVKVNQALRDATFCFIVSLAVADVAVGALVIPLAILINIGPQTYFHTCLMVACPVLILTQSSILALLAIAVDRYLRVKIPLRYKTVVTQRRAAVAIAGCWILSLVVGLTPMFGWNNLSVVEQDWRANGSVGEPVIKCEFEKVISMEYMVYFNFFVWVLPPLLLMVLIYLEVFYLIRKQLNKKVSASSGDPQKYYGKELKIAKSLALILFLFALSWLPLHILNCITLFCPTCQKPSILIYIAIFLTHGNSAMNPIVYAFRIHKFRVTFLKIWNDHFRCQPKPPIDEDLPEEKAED
Kind of test: [3H]DPCPX radioligand binding in intact cortical neurons. Conditions: for Total A1R density (Bmax) increase over control value: 25 µM; for A1R Bmax: [3H]DPCPX saturation binding. The procedure: Concerning adenosine receptor assessment by radioligand binding, [^3H]DPCPX and [^3H]ZM241385 were employed as selective A1R and A2AR radioligands, as described previously, to determine A1R and A2AR density, respectively. Briefly, primary cortical neurons growth in 24-well plates were washed with serum-free DMEM and pre-incubated with 2 U/mL ADA at 37 °C for 30 min to remove endogenous adenosine. After incubation, the radioligands [^3H]DPCPX (1–20 nM) or [^3H] ZM241385 (1–20 nM) were added in the absence or the presence of CPA in a concentration 10^4 times higher than the radioligand, to obtain non-specific binding to A1R, or 5 mM theophylline, to obtain non-specific binding to A2AR. A specific adenosine uptake inhibitor (1 µM dipyridamole) was added to the reaction mixture to block adenosine receptor ligands’ binding to adenosine transporters. After incubation at 25 °C for 2 h in a final volume of 250 µL, cells were washed with 500 µL of ice-cold buffer and disrupted with 0.2% SDS. Well contents were then transferred to vials and a scintillation liquid mixture was added to measure radioactivity. Two wells from each plate were reserved for protein concentration measurement.

Another test has as its system rat cortical neurons. Kind of test: MTT reduction cell viability assay after Aβ exposure. As to conditions: for decrease in cell viability: MTT reduction, vs control. In kind it is cell-based. The procedure:
Aβ25-35 and Aβ1-42 were water-soluble peptides, however, while Aβ25-35, the functional domain of Aβ required for both neurotrophic and neurotoxic effects, was directly added to neuronal cultures after its solubilisation, Aβ1-42 was solved in water and maintained for 24 h at 37 °C before its addition to promote its aggregation. To test the effect of mGluR ligands on cell death induced by Aβ in neuronal cultures, these drugs were added 30 min before the addition of Aβ25-35 and maintained during Aβ exposure. Unless otherwise indicated, all chemicals were dissolved in water.
Cell viability was determined on 96-well plates using an in vitro toxicology assay kit based on a mitochondrial-dependent reaction that transforms 3-[4,5-dimetylthiazol-2-yl]-2,5-diphenyltetrazolium bromide (MTT) into formazan crystals. Briefly, at the end of treatments, cells were incubated in culture medium with MTT solution (5 mg/mL) at 37 °C for 3 h. After incubation, MTT solubilization solution (10% Triton X-100 plus 0.1 M HCl in isopropanol anhydrous) was added into the wells to dissolve formazan crystals and the absorbance of each well was measured at 570 nm and 690 nm, according to the manufacturer’s instructions.

The mark [1] stands for this setting: neurons exposed to 25 µM for 24 h.
The mark [2] stands for this setting: neurons exposed to 25 µM for 48 h.

Where no end group is shown, it is not given here.

For the sequence GSNKGAIIGLM [Aβ25-35], the “basal or forskolin-stimulated AC activity vs control neurons” value in the test on adenylyl cyclase (AC) (25 µM, 24 h, 5 µM forskolin) is “No differences”. Also, the “basal AC activity” value in the test on adenylyl cyclase (AC) (setting [1]) turned out to be 2.33 ± 0.55 pmol/mg/min. For the same sequence, in the test on PLCβ1, the “total PLCβ1 protein decrease over control value” is 40%. In addition, the results for the “Total A1R density (Bmax) increase over control value” at A1R (24 h) and at A1R (48 h) were 265% and 184%, respectively. Further, the Kd (commonly the equilibrium constant for the complex coming apart) turned out to be 7.51 ± 2.35 nM on A1R (setting [1]) and 5.51 ± 1.33 nM at A1R (setting [2]). For the same sequence, the “A1R Bmax” value at A1R (setting [1]) was 545 ± 101 fmol/mg prot; at A1R (setting [2]) it was 423 ± 66 fmol/mg prot. The “decrease in cell viability” value is recorded as around 40% with rat cortical neurons (25 µM, 24 h) and around 40% in the test with rat cortical neurons (50 µM, 24 h). Further, the cell viability entry in the test with rat cortical neurons (25 µM, 48 h, MTT) is on record as “decrease in cell viability”. The “cell viability, concentration dependence” value in the test on rat cortical neurons (1, 10, 25 and 50 µM, 24 h, MTT) is listed as “concentration-dependent decrease in cell viability”.
